“Also recorded” adds a separate entry of the source.
Legend:
[1] = system: LNCaP cells; experiment: DHT-stimulated wild-type LNCaP cell growth; assay type: cell-based, human; settings: 0.03 nM DHT, 9 days
From the text: (§1) Prostate cancer is the most common malignancy and the second leading cause of cancer-related deaths among men in the US and the UK (Shibata et al, 1998). […] Steroidal 17-hydroxylase/C17,20 -lyase (P450c17) (EC 1.14.99.0) was selected as the target enzyme for inhibition, as this is a key regulatory enzyme of androgen synthesis. P450c17 catal- yses two sequential reactions in the steroid biosynthetic pathway and converts pregnenolone and progesterone to the C-19 andro- gens, dehydroepiandrosterone and androstenedione respectively. This enzyme has an identical amino acid sequence in testicular and adrenal tissues (Chung et al, 1987). […] In order to evaluate the effectiveness of these inhibitors we developed a multi-step system, which utilized the LNCaP human prostate cancer cell line. LNCaP cells remain the only androgen receptor (AR)-positive prostate cancer cell line, that can be readily grown in tissue culture (Horoszewicz et al, 1983). These cells respond to androgens with increased cell proliferation and elevated expression of prostate specific antigen (PSA) (Berns et al, 1993). LNCaP cells at early passages are not only androgen-responsive, but also androgen- dependent (Pousette et al, 1997). This is similar to the situation in most tumours of prostatic cancer patients, which are initially highly responsive and dependent on androgens. […] Therefore, we employed LNCaP cells as a model for evaluating the effectiveness of our new inhibitors of androgen synthesis. In this study the compounds selected for evaluation were two groups of azolyl steroids. […] Here we report on the application of LNCaP-CYP17-transfected cells for determining the inhibitory potencies of the new compounds against the P450c17 enzyme. […] We designed and evaluated two groups of azolyl steroids: 5-non-competitive inhibitors (5NCIs), VN/63-1, VN/85-1, VN/87-1 and their corresponding 4 derivatives (4NCIs), VN/107-1, VN/108-1 and VN/109-1. The human P450c17 gene was transfected into LNCaP human prostate cancer cells, and the resultant LNCaP- CYP17 cells were utilized to evaluate the inhibitory potency of the new azolyl steroids. […] We further evaluated our inhibitors in male severe combined immuno- deficient mice bearing LNCaP tumour xenografts. […] We also utilized wild-type LNCaP prostatic carcinoma cells for evaluating the direct effects of new azolyl steroids on proliferation of these cells in vitro and in vivo. MATERIALS AND METHODS Materials The human prostate cancer cell line LNCaP was obtained from the American Type Culture Collection (Rockville, MD, USA). RPMI- 1640 medium, trypsin-EDTA (0.25%/0.02%), penicillin/strepto- mycin (P/S), geniticin (G418), and LipofectAMINE were from Gibco-BRL (Grand Island, NY, USA). Fetal bovine serum (FBS) was obtained from Summit Biotechnology Inc. (Fort Collins, CO, USA) and steroid-free FBS was prepared as described previously (Klus et al, 1996). Phenol red free IMEM and trypsin-versine were purchased from Biofluids Inc. (Rockville, MD, USA). Chloroform and acetonitrile were purchased from JT Baker, Inc (Phillipsburg, NJ, USA). Hydroxypropyl cellulose (HPC) was purchased from Sigma Chemical Co. (St Louis, MO, USA). The PSA enzyme- linked immunusorbent assay (ELISA) kit was from DSL Inc. (Webster, TX, USA). Matrigel was generously supplied by Dr Hynda Kleinman (NIH, Bethesda, MD, USA). Inhibitors of androgen synthesis: VN/63-1, VN/85-1, VN/87-1, VN/107-1, VN/108-1 and VN/109-1 were synthesized in our labo- ratory as previously described (Njar et al, 1998). […] Metribolone [17-methyl-3 H]-R1881 ([3 H]-R1881: specific activity 86 Ci mmol-1 ) was purchased from Dupont NEN (Boston, MA, USA).

[2] = system: serum DHT; experiment: Serum DHT (RIA) in SCID mice; assay type: in vivo, male SCID mice; settings: 28 days of treatment, 50 mg kg-1 day-1
From the text: as §1

[3] = biological target: human prostatic 5-reductase; design: method as in Njar et al, 1998; settings: human prostatic microsomes; reported previously; ref Njar et al, 1998; cited from earlier work
[4] = biological target: T1, human 17α-hydroxylase/C17,20-lyase (P450c17) expressed in LNCaP-CYP17 cells (Homo sapiens, UniProt P05093); experiment: [3H]-acetic acid releasing assay (AARA) with LNCaP-CYP17 cells; assay type: cell-based; settings: LNCaP-CYP17 cells, 7 μM [21-3H]17-OHP5, 16 h; mean ± s.e.m., three experiments
T1 sequence (P05093 9-508 limits assumed): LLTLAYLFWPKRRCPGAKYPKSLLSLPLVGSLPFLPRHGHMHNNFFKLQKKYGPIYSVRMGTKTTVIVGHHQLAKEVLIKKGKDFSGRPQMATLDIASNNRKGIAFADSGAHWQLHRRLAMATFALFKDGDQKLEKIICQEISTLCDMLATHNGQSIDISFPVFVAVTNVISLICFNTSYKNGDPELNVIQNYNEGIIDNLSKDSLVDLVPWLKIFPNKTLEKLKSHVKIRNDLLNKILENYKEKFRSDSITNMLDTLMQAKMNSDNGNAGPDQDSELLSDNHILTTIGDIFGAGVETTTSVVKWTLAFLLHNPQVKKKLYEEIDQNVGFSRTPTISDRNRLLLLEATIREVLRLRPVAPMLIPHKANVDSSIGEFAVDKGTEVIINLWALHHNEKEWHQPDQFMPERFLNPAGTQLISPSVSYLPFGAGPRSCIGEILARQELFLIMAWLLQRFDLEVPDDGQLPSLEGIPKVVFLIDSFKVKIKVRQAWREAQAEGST

[5] = system: LNCaP tumour xenografts; experiment: LNCaP tumour xenograft growth in male SCID mice; assay type: in vivo
From the text: as §1

[6] = system: LNCaP cells; experiment: Testosterone-stimulated wild-type LNCaP cell growth; assay type: cell-based, human; settings: 0.1 nM testosterone, 9 days
From the text: as §1

[7] = system: serum PSA; experiment: Serum PSA (ELISA) in LNCaP tumour-bearing SCID mice; assay type: in vivo, male SCID mice; settings: 50 mg kg-1 day-1, 28 days
From the text: (§2) Prostate cancer is the most common malignancy and the second leading cause of cancer-related deaths among men in the US and the UK (Shibata et al, 1998). […] Steroidal 17-hydroxylase/C17,20 -lyase (P450c17) (EC 1.14.99.0) was selected as the target enzyme for inhibition, as this is a key regulatory enzyme of androgen synthesis. P450c17 catal- yses two sequential reactions in the steroid biosynthetic pathway and converts pregnenolone and progesterone to the C-19 andro- gens, dehydroepiandrosterone and androstenedione respectively. This enzyme has an identical amino acid sequence in testicular and adrenal tissues (Chung et al, 1987). […] In order to evaluate the effectiveness of these inhibitors we developed a multi-step system, which utilized the LNCaP human prostate cancer cell line. LNCaP cells remain the only androgen receptor (AR)-positive prostate cancer cell line, that can be readily grown in tissue culture (Horoszewicz et al, 1983). These cells respond to androgens with increased cell proliferation and elevated expression of prostate specific antigen (PSA) (Berns et al, 1993). LNCaP cells at early passages are not only androgen-responsive, but also androgen- dependent (Pousette et al, 1997). This is similar to the situation in most tumours of prostatic cancer patients, which are initially highly responsive and dependent on androgens. […] Therefore, we employed LNCaP cells as a model for evaluating the effectiveness of our new inhibitors of androgen synthesis. In this study the compounds selected for evaluation were two groups of azolyl steroids. […] Here we report on the application of LNCaP-CYP17-transfected cells for determining the inhibitory potencies of the new compounds against the P450c17 enzyme. […] We designed and evaluated two groups of azolyl steroids: 5-non-competitive inhibitors (5NCIs), VN/63-1, VN/85-1, VN/87-1 and their corresponding 4 derivatives (4NCIs), VN/107-1, VN/108-1 and VN/109-1. The human P450c17 gene was transfected into LNCaP human prostate cancer cells, and the resultant LNCaP- CYP17 cells were utilized to evaluate the inhibitory potency of the new azolyl steroids. […] We further evaluated our inhibitors in male severe combined immuno- deficient mice bearing LNCaP tumour xenografts. […] We also utilized wild-type LNCaP prostatic carcinoma cells for evaluating the direct effects of new azolyl steroids on proliferation of these cells in vitro and in vivo. MATERIALS AND METHODS Materials The human prostate cancer cell line LNCaP was obtained from the American Type Culture Collection (Rockville, MD, USA). RPMI- 1640 medium, trypsin-EDTA (0.25%/0.02%), penicillin/strepto- mycin (P/S), geniticin (G418), and LipofectAMINE were from Gibco-BRL (Grand Island, NY, USA). Fetal bovine serum (FBS) was obtained from Summit Biotechnology Inc. (Fort Collins, CO, USA) and steroid-free FBS was prepared as described previously (Klus et al, 1996). Phenol red free IMEM and trypsin-versine were purchased from Biofluids Inc. (Rockville, MD, USA). Chloroform and acetonitrile were purchased from JT Baker, Inc (Phillipsburg, NJ, USA). Hydroxypropyl cellulose (HPC) was purchased from Sigma Chemical Co. (St Louis, MO, USA). The PSA enzyme- linked immunusorbent assay (ELISA) kit was from DSL Inc. (Webster, TX, USA). Matrigel was generously supplied by Dr Hynda Kleinman (NIH, Bethesda, MD, USA). […]

[8] = system: serum testosterone; experiment: Serum testosterone (RIA) in SCID mice; assay type: in vivo, male SCID mice; settings: 28 days of treatment, 50 mg kg-1 day-1
From the text: as §1

[9] = system: LNCaP cells; experiment: LNCaP cell growth in steroid-free medium; assay type: cell-based, human
From the text: as §2, with “USA).” for “USA). Fetal bovine serum (FBS) was obtained from Summit Biotechnology Inc. (Fort Collins, CO, USA) and steroid-free FBS was prepared as described previously (Klus et al, 1996). Phenol red free IMEM and trypsin-versine were purchased from Biofluids Inc. (Rockville, MD, USA). Chloroform and acetonitrile were purchased from JT Baker, Inc (Phillipsburg, NJ, USA). Hydroxypropyl cellulose (HPC) was purchased from Sigma Chemical Co. (St Louis, MO, USA). The PSA enzyme- linked immunusorbent assay (ELISA) kit was from DSL Inc. (Webster, TX, USA). Matrigel was generously supplied by Dr Hynda Kleinman (NIH, Bethesda, MD, USA).”

[10] = Table 3, second experiment, control 239.2
[11] = second experiment, 50 mg kg-1 day-1, 28 days
[12] = Table 2, first experiment, control 243.8
[13] = first experiment, 50 mg kg-1 day-1, 28 days
[14] = Table 2, first experiment, control 1.043
[15] = Table 3, second experiment, control 0.205

Compound	Serum DHT [2, 10]	IC50 [3]	IC50 [4]	Serum PSA levels versus control ([7]; first experiment)	Serum DHT [2, 12]	Reduction of tumour weights compared to vehicle-treated mice [5, 13]	Serum Testosterone [8, 14]	Serum Testosterone [8, 15]	other results
C[C@]12CCC(=O)C[C@@H]1CC[C@@H]1[C@@H]2CC[C@]2(C)[C@@H](O)CC[C@@H]12 [DHT, Dihydrotestosterone, reference compound]									Stimulation of LNCaP cell proliferation compared to vehicle-treated cells [1]: 3.2 fold
C[C@]12CCC(=O)C=C1CC[C@@H]1[C@@H]2CC[C@]2(C)C(n3ccnn3)=CC[C@@H]12 [VN/109-1]	228.4 pg/mL	198 nM	5.39 nM						Effect on DHT-induced cell proliferation ([1]; 0.5-5.0 μM compound): least effective inhibitors of androgen-induced cell pro- liferation; Stimulation of LNCaP tumour growth compared to control mice [5, 11]: 110%; Effect on testosterone-stimulated cell growth (words) ([6]; 0.5-5.0 μM compound): moderate inhibitory effect; also recorded: biphasic growth responses
C[C@]12CC[C@H]3[C@@H](CCC4=CC(=O)CC[C@@]43C)[C@@H]1CC[C@@H]2O [Testosterone, reference compound]									Stimulation of LNCaP cell proliferation compared to vehicle-treated control cells [6]: 5.8 fold
C[C@]12CC[C@H](O)CC1=CC[C@@H]1[C@@H]2CC[C@]2(C)C(n3ccnn3)=CC[C@@H]12 [VN/87-1]		> 5000 nM	7.97 nM	significantly lower	128.6 pg/mL	31%	0.343 ng/mL		Inhibition of LNCaP tumour growth (tumour volume) ([5]; first experiment, 50 mg kg-1 day-1, 4 weeks): 33%
CC(C)(C)NC(=O)[C@H]1CC[C@H]2[C@@H]3CC[C@H]4NC(=O)C=C[C@]4(C)[C@H]3CC[C@]12C [Finasteride, reference compound]	223.4 pg/mL	33 nM	> 5000 nM	significantly lower	137.0 pg/mL	22%	1.389 ng/mL	0.638 ng/mL	inhibition at 5 µM ([9]; Homo sapiens, LNCaP, 5 μM concentration): 25%; Inhibition of LNCaP cell growth in steroid-free media ([9]; concentrations of 1.0-5.0 μM, 9 days): 20-30%; Serum PSA levels versus control ([7]; second experiment): significantly lower; Inhibition of LNCaP tumour growth (tumour volume) [5, 11]: 29%; Reduction of tumour weights [5, 11]: 28%
C[C@]12CC[C@H](O)CC1=CC[C@@H]1[C@@H]2CC[C@]2(C)C(n3cncn3)=CC[C@@H]12 [VN/63-1]	189.7 pg/mL	> 5000 nM	47.1 nM					0.146 ng/mL	Concentration that completely blocked DHT stimulation [1]: 1.0 µM; Effect on tumour growth (words) [5, 11]: Neither VN/63-1, VN/107 nor ketoconazole had any appreciable effects; Concentration that completely inhibited the growth stimulatory effect of testosterone [6]: 1.0 µM

Reference: paper PMC2362906, “Effects of new 17α-hydroxylase/C17,20-lyase inhibitors on LNCaP prostate cancer cell growth in vitro and in vivo” (British Journal of Cancer, 1999)
